The text below walks through data of US6479531B1, “Gastrin and cholecystokinin receptor ligands” (James Black Foundation Limited, priority 1998, dated 2002).

The target in one test is T1, gastrin receptor (Rattus norvegicus, UniProt P30553).
T1 construct: The stomach was excised and flushed with ca. 1 ml of unbuffered physiological saline solution; from tissue; host or cells: isolated whole stomach of immature rats (ca. 21 days old)
T1 sequence (P30553 1-452): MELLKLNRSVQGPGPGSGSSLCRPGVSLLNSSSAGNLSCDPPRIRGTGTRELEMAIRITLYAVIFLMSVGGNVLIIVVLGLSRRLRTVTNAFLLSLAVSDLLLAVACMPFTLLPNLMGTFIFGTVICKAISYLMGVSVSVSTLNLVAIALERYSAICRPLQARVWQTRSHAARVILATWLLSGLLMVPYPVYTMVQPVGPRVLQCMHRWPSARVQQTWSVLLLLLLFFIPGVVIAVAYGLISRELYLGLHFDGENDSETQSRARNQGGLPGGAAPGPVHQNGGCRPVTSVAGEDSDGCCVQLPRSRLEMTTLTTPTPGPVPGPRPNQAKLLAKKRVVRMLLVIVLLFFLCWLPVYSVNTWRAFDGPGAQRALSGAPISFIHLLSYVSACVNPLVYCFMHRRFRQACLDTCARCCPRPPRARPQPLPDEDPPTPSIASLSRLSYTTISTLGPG
Nature of the test: gastrin antagonist activity in immature rat stomach assay (pentagastrin dose-response, acid secretion). Particulars: isolated immature rat stomach, cumulative pentagastrin dose-response curves, read-out: Gastrin pKb (converted). In short, it runs like this:
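Gastrin antagonism was measured as the effect on cumulative pentagastrin dose-response curves of acid output, recorded by pH electrode in the perfusate of an excised immature rat stomach (ca. 21 days old). Test compound was placed in the serosal bath (37°, 3×10^−8 M 5-methylfurmethide) 60 min before pentagastrin.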

For another test, the target named is T2, CCKA receptor (Cavia porcellus, UniProt Q63931).
T2 construct: The pancreatata were removed from male guineau-pigs (200-300 g; Dunkin Hartley); from tissue; host or cells: pancreas membranes of male Dunkin Hartley guinea-pigs
T2 sequence (Q63931 1-430): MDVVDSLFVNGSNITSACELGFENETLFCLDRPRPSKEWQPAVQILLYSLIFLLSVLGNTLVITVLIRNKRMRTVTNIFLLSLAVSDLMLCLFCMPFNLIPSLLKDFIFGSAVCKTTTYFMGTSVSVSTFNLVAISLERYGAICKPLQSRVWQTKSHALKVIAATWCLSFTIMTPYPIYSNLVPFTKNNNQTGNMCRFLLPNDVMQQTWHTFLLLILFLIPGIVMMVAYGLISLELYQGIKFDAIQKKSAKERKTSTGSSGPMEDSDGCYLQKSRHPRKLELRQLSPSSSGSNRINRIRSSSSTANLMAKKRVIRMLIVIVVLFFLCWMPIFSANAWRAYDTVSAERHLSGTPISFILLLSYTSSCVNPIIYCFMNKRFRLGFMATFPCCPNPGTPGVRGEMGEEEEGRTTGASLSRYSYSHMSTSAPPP
The test is described as follows: CCKA binding assay in guinea-pig pancreas membranes. The following applies: [125I]-CCK8(S) 200 pM, with 0.375 μM PD134,308, read-out: CCKA pKi (converted). The protocol:
The compounds of certain examples were also tested in a CCKA binding assay as follows:
The pancreatata were removed from male guineau-pigs (200-300 g; Dunkin Hartley) and placed in ice-cold HEPES buffer (pH 7.2 @ 21±3° C.). The pancreatata were homogenised in 40 ml ice-cold HEPES buffer using a polytron (Brinkmann, PT10, setting 10) 4×1 second. The homogenate was centrifuged at 39,800 g for 15 min at 4° C. The supernatant was discarded and the pellet re-suspended using a Teflon-in-glass homogeniser in 20 volumes of fresh buffer and re-centrifuged as above. The final pellet was re-suspended using a Teflon-in-glass homogeniser to a tissue concentration of 1 mg.ml^−1 (original weight), and filtered through a 500 μm pore-size Nytex mesh.
The membranes (400 μl; containing 0.375 μM PD134,308) were incubated for 150 minutes at 21±3° C. in a final volume of 0.5 ml with HEPES buffer containing [^125I]-CCK8 (S) (50 μl; 200 pM) and competing compound. Total and non-specific binding of [^125I]-CCK8 (S) were defined using 50 μl of buffer and 50 μ of 100 nM L-364,718 respectively. The assay was terminated by rapid filtration through pre-soaked Whatman GF/B filters using a Brandell Cell Harvetser. The filters were washed (3×3 ml) with ice-cold 50 mM Tris HCl (pH 7.4 @ 4° C.) and bound radioactivity was determined by counting (1 min) in a gamma counter.

For another test, the target named is T3, CCKB receptor (Mus musculus, UniProt P56481).
T3 construct: The whole brains from male mice (CD1 22-25 g; Charles River) were removed; from tissue; host or cells: cerebral cortex membranes of male CD1 mice
T3 sequence (P56481 1-453): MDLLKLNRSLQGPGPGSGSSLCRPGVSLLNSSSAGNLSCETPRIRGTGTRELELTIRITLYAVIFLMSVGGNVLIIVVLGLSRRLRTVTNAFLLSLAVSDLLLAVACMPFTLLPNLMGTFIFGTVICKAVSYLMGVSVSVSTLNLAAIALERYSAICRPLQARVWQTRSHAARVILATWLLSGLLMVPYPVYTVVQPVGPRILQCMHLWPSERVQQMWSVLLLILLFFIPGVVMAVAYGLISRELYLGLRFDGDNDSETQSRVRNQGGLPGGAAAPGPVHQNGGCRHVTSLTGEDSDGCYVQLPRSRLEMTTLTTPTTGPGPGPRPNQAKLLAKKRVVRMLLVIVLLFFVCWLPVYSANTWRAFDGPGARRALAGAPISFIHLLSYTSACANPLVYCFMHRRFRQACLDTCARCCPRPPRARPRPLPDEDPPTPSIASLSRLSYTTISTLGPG
Nature of the test: CCKB receptor radioligand binding assay in mouse cortical membranes. Particulars: [125I]-CCK8(S) 200 pM, 150 min at 21±3°, read-out: CCKB pKi (converted). In short, it runs like this: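 Bound radioactivity was gamma-counted after rapid GF/B filtration and cold 50 mM Tris-HCl (pH 7.4) washes. The tissue was cerebral cortex from male CD1 mice, prepared as twice-centrifuged membranes in pH 7.2 HEPES/NaCl/KCl/MgCl2/EDTA buffer with bacitracin at 20 mg/ml original wet weight.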

SMILES strings stand for the structures.

As to `Cc1cc(C)c(-c2nc(C(=O)Nc3ccc(C)c(C(=O)O)c3)c(CCC34CC5CC(CC(C5)C3)C4)[nH]2)c(C)c1` [Example 155, 5-{[5-(2-Adamantan-1-yl-ethyl)-2-(2,4,6-trimethyl-phenyl)-1H-imidazole-4-carbonyl]-amino}-2-methyl-benzoic Acid], at gastrin receptor, the Kb was 3.24 nM. Further, the results for the Ki at CCKA receptor and on CCKB receptor were 126 nM and 2.88 nM, respectively.
In the case of `Cc1ccc(NC(=O)c2[nH]c(C3(C)CCCCC3)nc2CCC23CC4CC(CC(C4)C2)C3)cc1C(=O)O` [Example 200, 5-{[5-(2-Adamantan-1-yl-ethyl)-2-(1-methyl-cyclohexyl)-1H-imidazole-4-carbonyl}-amino)-2-methyl-benzoic Acid], the Kb at gastrin receptor is 0.891 nM. Moreover, the Ki at CCKA receptor is 251 nM; at CCKB receptor it was 3.8 nM.
Take `O=C(O)Cc1cccc(NC(=O)c2nc(C3CCCCC3)[nH]c2COC23CC4CC(CC(C4)C2)C3)c1` [Example 219, (3-{[5-(Adamantan-1-yloxymethyl)-2-cyclohexyl-1H-imidazole-4-carbonyl]-amino}-phenyl)-acetic Acid]: the Kb at gastrin receptor was 69.2 nM. Moreover, the Ki on CCKA receptor was 501 nM.
For `O=C(O)c1cccc(NC(=O)c2nc(C34CCC(CC3)CC4)[nH]c2COC23CC4CC(CC(C4)C2)C3)c1` [Example 221, 3-{[5-(Adamantan-1-yloxymethyl)-2-bicyclo[2.2.2]oct-1-yl-1H-imidazole-4-carbonyl]-amino}-benzoic Acid], in that order: 0.708 nM and 794 nM.
Regarding `O=C(O)c1cccc(NC(=O)c2nc([C@@H]3CC4C=C[C@H]3C4)[nH]c2COC23CC4CC(CC(C4)C2)C3)c1` [Example 236], the Kb on gastrin receptor is 1.05 nM. Also, the Ki on CCKA receptor is 794 nM.
As to `O=C(O)c1cccc(NC(=O)c2[nH]c(C3CCCCC3)nc2CCC23CC4CC(CC(C4)C2)C3)c1` [Example 76, 3-{[5-(2-Adamantan-1-yl-ethyl)-2-cyclohexyl-1H-imidazole-4-carbonyl]-amino}-benzoic Acid], the Kb on gastrin receptor was 4.9 nM. For the same compound, the figures for the Ki on CCKA receptor and on CCKB receptor were 631 nM and 25.1 nM, respectively.
With `O=C(O)c1cccc(NC(=O)c2nc([C@H]3CC4C=C[C@@H]3C4)[nH]c2COC23CC4CC(CC(C4)C2)C3)c1` [Example 235, endo-3-{[5-(Adamantan-1-yloxymethyl)-2-((1S,2S)-bicyclo[2.2.1]hept-5-en-2-yl)-1H-imidazole-4-carbonyl]-amino}-benzoic Acid], the Kb on gastrin receptor is 3.02 nM. In addition, the Ki on CCKA receptor is 2510 nM.
For the compound `O=C(O)c1cccc(NC(=O)c2nc(C3CCCCC3)[nH]c2COC23CC4CC(CC(C4)C2)C3)c1` [Example 216, 3-{[5-(Adamantan-1-yloxymethyl)-2-cyclohexyl-1H-imidazole-4-carbonyl]-amino}-benzoic Acid], the Kb at gastrin receptor was 0.871 nM. Also, the Ki at CCKA receptor was 501 nM; at CCKB receptor it was 12.6 nM.
Take `O=C(O)Cc1cccc(NC(=O)c2nc(C34CCC(CC3)CC4)[nH]c2COC23CC4CC(CC(C4)C2)C3)c1` [Example 224, (3-{[5-(Adamantan-1-yloxymethyl)-2-bicyclo[2.2.2]oct-1-yl-1H-imidazole-4-carbonyl]-amino}-phenyl)-acetic Acid]: the Kb at gastrin receptor was 18.2 nM. Further, at CCKA receptor, the Ki is 631 nM.
With `Cc1ccc(NC(=O)c2nc(C3CC4C=CC3C4)[nH]c2CCC23CC4CC(CC(C4)C2)C3)cc1C(=O)O` (racemic) [Example 211, (±)-endo-5-{[5-(2-Adamantan-1-yl-ethyl)-2-bicyclo[2.2.1]hept-5-en-2-yl-1H-imidazole-4-carbonyl]-amino}-2-methyl-benzoic Acid], at gastrin receptor, the Kb was 2.57 nM. Moreover, the values for the Ki at CCKA receptor and at CCKB receptor were 100 nM and 2.29 nM, respectively.
